The source of these data is ChEMBL document CHEMBL1201862, “PubChem BioAssay data set” (2004).

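Cells were grown in 96-well plates and exposed to each compound for 48 hours at five concentrations; endpoints were interpolated linearly between bracketing concentrations, or set to the highest concentration if not reached. GI50 = concentration required for 50% inhibition of growth.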 Calls of active or inactive are those of the source. Rule as the data show it: active = GI50 up to about 1.1 µM and inactive = higher. A value given as a limit tells only on which side of the number the result lay.

Holding throughout (assay): NCI-60 cell line screen, 48 h
Experiment [1] has as its system A549.
In experiment [2] the test system is BT-549.
The test system of experiment [3] is HCT-15.
Experiment [4] concerns HT-29.
Experiment [5] deals with KM12.
In experiment [6] the test system is M14.
For experiment [7], the system named is MDA-N.
The subject of experiment [8] is Malme-3M.
In experiment [9] the test system is NCI-H226.
Experiment [10] concerns OVCAR-3.
In experiment [11] the test system is OVCAR-8.
Experiment [12] has as its system SF-268.
In experiment [13] the test system is SF-295.
Experiment [14] relates to SF-539.
In experiment [15] the test system is SK-MEL-28.
Experiment [16] concerns SK-MEL-5.
Experiment [17] deals with SNB-19.
In experiment [18] the test system is T47D.
Experiment [19] relates to UACC-62.

Take `Cc1ccc(C2SC(=N)Nc3c2c(C)nn3C(=O)c2ccncc2)cc1` (stereo not given): the GI50 in experiment [1] is > 10 µM (inactive); in experiment [2] it was > 10 µM (inactive); in experiment [3], > 10 µM; in [4], > 10 µM (inactive); in experiment [5], > 10 µM (inactive); in [6], > 10 µM (inactive). Also, the GI50 in [7], in experiment [8], in experiment [9], in experiment [10], in experiment [11] and in experiment [12] was > 10 µM (inactive) in each case. The GI50 in experiment [13], in experiment [14], in experiment [15], in experiment [16], in experiment [17] and in experiment [18] was > 10 µM (inactive) in each case. The GI50 in experiment [19] was > 10 µM (inactive).
In the case of `O=C(NCCSSCCNC(=O)/C(Cc1ccc(O)c(Br)c1)=N/O)/C(Cc1ccc(O)c(Br)c1)=N/O` [PSAMMAPLIN A], the GI50 is 1.44 µM (inactive) in experiment [1]; 6.21 µM (inactive) in experiment [2]; 4.89 µM in [3]; 1.35 µM (inactive) in [4]; 1.47 µM (inactive) in [5]; 1.32 µM (inactive) in experiment [6]. For the same molecule, the GI50 was 1.6 µM (inactive) in experiment [7]; 0.597 µM (active) in experiment [8]; 9.82 µM (inactive) in experiment [9]; 1.87 µM (inactive) in [10]; 1.52 µM (inactive) in [11]; 1.62 µM (inactive) in experiment [12]. For the same molecule, the GI50 in experiment [13] is 1.34 µM (inactive); in [14], 1.72 µM (inactive); in [15], 3.16 µM (inactive); in experiment [16] it was 0.927 µM (active); in [17] it was 2.08 µM (inactive); in experiment [18] it was 3.71 µM (inactive). Also, in experiment [19], the GI50 is 1.72 µM (inactive).
Consider `COc1cc(Cn2c3c(c4c(C(=O)NCCN(C)C)c(O)ccc42)C(=O)c2ccccc2C3=O)cc(OC)c1`, for which the GI50 in [1] was 1.88 µM (inactive); in experiment [2] it was 2.23 µM (inactive); in experiment [3] it was 1.88 µM; in experiment [4], 1.87 µM (inactive); in experiment [5] it was 1.58 µM (inactive); in experiment [6], 1.73 µM (inactive). In addition, the GI50 in [7] is 1.63 µM (inactive); in [8], 1.54 µM (inactive); in experiment [9] it was 6.87 µM (inactive); in experiment [10] it was 1.73 µM (inactive); in experiment [11], 1.91 µM (inactive); in experiment [12] it was 1.99 µM (inactive). Moreover, the GI50 in experiment [13] was 1.92 µM (inactive); in experiment [14], 1.79 µM (inactive); in experiment [15], 1.9 µM (inactive); in [16], 1.67 µM (inactive); in experiment [17], 2.51 µM (inactive); in experiment [18] it was 1.8 µM (inactive). For the same molecule, the GI50 in [19] is 1.91 µM (inactive).
As for `O=C(Nc1nc2ccc([N+](=O)[O-])cc2[n+]([O-])n1)C(F)(F)F`, the GI50 in [1] was 24.6 µM (inactive); in experiment [2] it was 94.2 µM (inactive); in [3], 16.6 µM; in [4], 23.3 µM (inactive); in experiment [5], 29.1 µM (inactive); in [6], 37.3 µM (inactive). The GI50 is 18.7 µM (inactive) in experiment [7]; 8.02 µM (inactive) in experiment [8]; 49.8 µM (inactive) in [9]; > 10 µM (inactive) in experiment [10]; 21 µM (inactive) in [11]; 62.4 µM (inactive) in experiment [12]. In addition, the GI50 in experiment [13] was 27.9 µM (inactive); in experiment [14], 45.4 µM (inactive); in experiment [15], 47.2 µM (inactive); in experiment [16] it was 12.5 µM (inactive); in [17], 49.8 µM (inactive); in experiment [18] it was 35.2 µM (inactive). In experiment [19], the GI50 was 21.3 µM (inactive).
For `CCOC(=O)CCC(NC(=O)c1ccc(Nc2nc3ccc(C(F)(F)F)cc3nc2-c2ccccc2)cc1)C(=O)OCC` (stereo not given), the GI50 in experiment [1] was > 100 µM (inactive); in experiment [2], > 100 µM (inactive); in experiment [3], > 100 µM; in [4], > 100 µM (inactive); in experiment [5], > 94 µM (inactive); in experiment [6], 19.7 µM (inactive). Besides, the GI50 in experiment [7] is 19.6 µM (inactive); in experiment [8] it was 23.1 µM (inactive); in experiment [9] it was > 57.3 µM (inactive); in experiment [10] it was 26.6 µM (inactive); in [11], > 100 µM (inactive); in [12], 55.6 µM (inactive). In addition, the GI50 is > 100 µM (inactive) in experiment [13]; 45.5 µM (inactive) in [14]; 40.3 µM (inactive) in experiment [15]; 30.4 µM (inactive) in experiment [16]; > 100 µM (inactive) in [17]; 22.1 µM (inactive) in [18]. For the same molecule, the GI50 in experiment [19] is 17.3 µM (inactive).
Take `Cc1cc(N(CCC#N)CCC#N)ccc1C(=N/NC(=O)c1cc(Cl)ccc1O)/N=N/c1cccc(Cl)c1`: the GI50 in experiment [1] was 17.1 µM (inactive); in [2] it was 14.8 µM (inactive); in [3], 6.62 µM; in experiment [4], 16.1 µM (inactive); in experiment [5], 11.2 µM (inactive); in experiment [6], 15.5 µM (inactive). Moreover, the GI50 in experiment [7] was 29.5 µM (inactive); in [8] it was 14.2 µM (inactive); in [9], 18.8 µM (inactive); in experiment [10] it was 3.56 µM (inactive); in experiment [11], 12.1 µM (inactive); in experiment [12], 11.8 µM (inactive). Besides, the GI50 was 22 µM (inactive) in experiment [13]; 30.1 µM (inactive) in experiment [14]; 16 µM (inactive) in experiment [15]; 13.7 µM (inactive) in experiment [16]; 22.9 µM (inactive) in [17]; 15.4 µM (inactive) in experiment [18]. In addition, the GI50 in [19] was 10.6 µM (inactive).
As for `CCCCCC(/C=C/[C@@H]1[C@@H](C(O)CCCCCC(=O)OC)C(=O)C[C@H]1O[Si](C)(C)C(C)(C)C)OCOCCOC` (stereo not given in full), the GI50 in experiment [1] was 24.6 µM (inactive); in experiment [2] it was 9.06 µM (inactive); in experiment [3] it was 7.98 µM; in experiment [4], 6.7 µM (inactive); in experiment [5], 6.62 µM (inactive); in experiment [6] it was 13.8 µM (inactive). The GI50 in experiment [7] was 8.51 µM (inactive); in experiment [8], 16.8 µM (inactive); in [9], 18.2 µM (inactive); in [10], 14.9 µM (inactive); in [11] it was 16.5 µM (inactive); in experiment [12] it was 14 µM (inactive). In addition, the GI50 is 17.9 µM (inactive) in [13]; 7.11 µM (inactive) in experiment [14]; 15.3 µM (inactive) in experiment [15]; 14.5 µM (inactive) in experiment [16]; 15.3 µM (inactive) in experiment [17]; 21.4 µM (inactive) in [18]. The GI50 in [19] is 13.1 µM (inactive).
`O=[N+]([O-])/C(C(Cl)=C(Cl)Cl)=C(\N1CCOCC1)n1nnc2ccccc21`: the GI50 in experiment [1] is 16.7 µM (inactive); in experiment [2] it was 19 µM (inactive); in experiment [3], 15.4 µM; in experiment [5], 20.2 µM (inactive); in experiment [6], 17.2 µM (inactive); in [7], 19.6 µM (inactive). The GI50 was 18.4 µM (inactive) in experiment [8]; 26.8 µM (inactive) in [9]; 19.8 µM (inactive) in experiment [10]; 18.3 µM (inactive) in experiment [12]; 17.7 µM (inactive) in experiment [13]; 15.4 µM (inactive) in experiment [14]. In addition, the GI50 was 22.5 µM (inactive) in experiment [15]; 17.6 µM (inactive) in experiment [16]; 14.3 µM (inactive) in [17]; 16.9 µM (inactive) in experiment [18]; 23.3 µM (inactive) in [19].
